Measurements taken from PMC8364350 (Nature ecology & evolution, 2020).

T1: DrCSAD (Danio rerio, UniProt A0A8M1N2X8)
T1 sequence (A0A8M1N2X8 1-500): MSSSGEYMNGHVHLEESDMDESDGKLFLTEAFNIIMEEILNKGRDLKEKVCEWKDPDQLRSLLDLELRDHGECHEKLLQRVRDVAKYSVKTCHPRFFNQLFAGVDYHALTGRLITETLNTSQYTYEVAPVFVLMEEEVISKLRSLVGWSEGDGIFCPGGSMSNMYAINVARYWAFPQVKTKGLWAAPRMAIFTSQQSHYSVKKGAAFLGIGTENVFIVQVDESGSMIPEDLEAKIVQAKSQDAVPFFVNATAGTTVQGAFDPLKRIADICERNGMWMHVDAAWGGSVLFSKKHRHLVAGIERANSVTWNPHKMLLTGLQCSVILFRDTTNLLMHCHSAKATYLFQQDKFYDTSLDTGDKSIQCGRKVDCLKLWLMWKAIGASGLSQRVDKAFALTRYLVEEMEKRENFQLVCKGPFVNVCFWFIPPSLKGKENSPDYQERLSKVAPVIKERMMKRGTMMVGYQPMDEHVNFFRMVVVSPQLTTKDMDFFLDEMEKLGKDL

T2: HsCSAD (Homo sapiens, UniProt Q9Y600)
T2 sequence (Q9Y600 1-493): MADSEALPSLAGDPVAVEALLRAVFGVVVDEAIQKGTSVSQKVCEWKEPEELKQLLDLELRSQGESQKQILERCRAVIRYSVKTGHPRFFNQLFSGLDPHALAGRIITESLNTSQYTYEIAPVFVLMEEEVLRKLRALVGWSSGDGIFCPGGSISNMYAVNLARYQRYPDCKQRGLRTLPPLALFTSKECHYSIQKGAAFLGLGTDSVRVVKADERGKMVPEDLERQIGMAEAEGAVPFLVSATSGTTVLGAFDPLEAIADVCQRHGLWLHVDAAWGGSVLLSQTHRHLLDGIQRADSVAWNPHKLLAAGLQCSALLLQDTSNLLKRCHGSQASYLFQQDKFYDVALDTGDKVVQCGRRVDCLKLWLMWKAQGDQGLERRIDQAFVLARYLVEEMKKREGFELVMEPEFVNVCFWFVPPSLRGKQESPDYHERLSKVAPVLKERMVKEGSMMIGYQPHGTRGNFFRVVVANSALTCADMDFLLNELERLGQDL

B1: GgCAD (Gallus gallus) (protein)
chain: MAEQSDLERPAVDGAAGEEFLRAAFQVLLEEAVRKGTDVAQKVCEWKEPHELRELLDLELRSHGEPAGRLLERCRDIIRYSVKTCHPRFFNQLFSGLDHHALAGRLLTETLNTSQYTYEIAPVFVLMEEVVLAKLRELVGWNSGDGIFCPGGSISNMYAMNVARFQRFPESRQQGSRALPRLVLFASEECHYSIQKGAAFLGIGTDNVVLVRADERGKMIPEELEKEIERVKSEGAVPFFVSATSGTTVLGAFDPLGPVADVCQRHGLWLHVDAAWGGSALLSRKHRQLLAGIERADSVAWNPHKMLTVGLQCSAFLLRDDSGLLQRCHGAGAAYLFQPDKFYDVMFDTGDKTVQCGRRVDCLKLWLLWKAVGSEGLEQRVDRAFACTSYLAAEMKRRDGFQLVLEPEFINLCFWFVPPSLRGQQGCTDFGPRLGKVAPAIKERMMKEGSMMVGYQPHGTRPNFFRQIVTSPAVTRADLDFFLDEIERLGCDL

Legend:
DrCSAD = target: T1, DrCSAD; experiment: 1H NMR product quantification, specific activity; assay type: biochemical; settings: 5 min reaction stopped with 1 M HCl, pH 7.0, 25 C; preferred substrate
HsCSAD = target: T2, HsCSAD; experiment: 1H NMR product quantification, specific activity; assay type: biochemical; settings: 5 min reaction stopped with 1 M HCl, pH 7.0, 25 C; preferred substrate
[1] = substrate: N[C@@H](CS(=O)(=O)O)C(=O)O; experiment: time-resolved 1H NMR, integrated Michaelis-Menten fit of progress curve; assay type: biochemical, Gallus gallus; settings: 50 mM NaH2PO4 pH 7.0, 25 C, H2O:D2O 9:1, example time course

Molecule	specific activity (DrCSAD)	specific activity (HsCSAD)	Km [1] [mM]
N[C@@H](CS(=O)O)C(=O)O [CSA, cysteine sulfinic acid]	observed the same preference for CSA in a CSAD ortholog of a basal vertebrate	We confirmed the opposite preference for the CSA substrate in human CSAD	–
B1	–	–	6.95 ± 3.23
